Data from ChEMBL document CHEMBL3217541, “Optimisation of aqueous solubility in a series of G protein coupled receptor 119 (GPR119) agonists” (Medchemcomm, 2013).
Converted amounts (≈) assume the structure as drawn.

How the values were obtained:
[1] = Chemical stability of the compound at pH 10 at 10 uM after 18 hrs incubation at 65 degC; assay type: physicochemical; settings: buffer
[2] = Chemical stability of the compound at pH 8 at 10 uM after 18 hrs incubation at 65 degC; assay type: physicochemical; settings: buffer
[3] = Chemical stability of the compound at pH 6 at 10 uM after 18 hrs incubation at 65 degC; assay type: physicochemical; settings: buffer
[4] = Chemical stability of the compound at pH 4 at 10 uM after 18 hrs incubation at 65 degC; assay type: physicochemical; settings: buffer
[5] = Chemical stability of the compound at pH 1 at 10 uM after 18 hrs incubation at 65 degC; assay type: physicochemical; settings: buffer
[6] = physchem; settings: aqueous phosphate buffer, pH 7.4
[7] = in vitro; settings: human, liver microsomes
[8] = target: Voltage-gated inwardly rectifying potassium channel KCNH2 (Homo sapiens, UniProt Q12809); experiment: Inhibition of human ERG
[9] = target: Cytochrome P450 2D6 (Homo sapiens, UniProt P10635); experiment: Inhibition of CYP2D6 (unknown origin); assay type: ADME
[10] = target: Cytochrome P450 3A4 (Homo sapiens, UniProt P08684); experiment: Inhibition of CYP3A4 (unknown origin); assay type: ADME
[11] = target: Cytochrome P450 2C9 (Homo sapiens, UniProt P11712); experiment: Inhibition of CYP2C9 (unknown origin); assay type: ADME
[12] = target: Cytochrome P450 2C19 (Homo sapiens, UniProt P33261); experiment: Inhibition of CYP2C19 (unknown origin); assay type: ADME
[13] = target: T1, Cytochrome P450 1A2 (Homo sapiens, UniProt P05177); experiment: Inhibition of CYP1A2 (unknown origin); assay type: ADME
T1 sequence (P05177 whole entry): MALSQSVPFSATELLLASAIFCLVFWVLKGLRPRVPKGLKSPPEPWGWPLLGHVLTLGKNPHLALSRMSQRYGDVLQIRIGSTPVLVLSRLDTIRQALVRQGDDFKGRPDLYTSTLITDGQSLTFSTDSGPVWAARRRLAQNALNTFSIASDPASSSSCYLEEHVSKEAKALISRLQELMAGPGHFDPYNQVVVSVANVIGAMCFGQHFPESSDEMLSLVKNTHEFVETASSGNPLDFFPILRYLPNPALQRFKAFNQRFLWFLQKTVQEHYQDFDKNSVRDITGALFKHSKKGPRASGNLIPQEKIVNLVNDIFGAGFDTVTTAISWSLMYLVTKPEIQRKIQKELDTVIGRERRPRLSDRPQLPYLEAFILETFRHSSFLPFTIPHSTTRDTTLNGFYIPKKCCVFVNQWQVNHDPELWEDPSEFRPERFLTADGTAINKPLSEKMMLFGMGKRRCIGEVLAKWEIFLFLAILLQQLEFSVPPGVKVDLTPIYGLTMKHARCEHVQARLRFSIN

[14] = target: T2, Glucose-dependent insulinotropic receptor (Mus musculus, UniProt Q7TQP3); experiment: Agonist activity at mouse GPR119 transfected in HEK293 cells assessed as cAMP accumulation after 45 mins incubation by HTRF assay; assay type: functional, cell-based
T2 sequence (Q7TQP3 whole entry): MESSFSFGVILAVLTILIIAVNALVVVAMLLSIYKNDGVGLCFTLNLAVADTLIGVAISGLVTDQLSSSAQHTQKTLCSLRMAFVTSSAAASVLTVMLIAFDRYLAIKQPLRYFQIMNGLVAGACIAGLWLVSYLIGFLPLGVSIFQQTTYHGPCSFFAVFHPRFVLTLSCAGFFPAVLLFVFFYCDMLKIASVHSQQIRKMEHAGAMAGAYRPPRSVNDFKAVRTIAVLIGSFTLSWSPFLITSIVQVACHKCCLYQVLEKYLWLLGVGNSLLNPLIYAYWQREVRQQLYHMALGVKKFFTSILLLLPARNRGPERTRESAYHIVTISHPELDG

[15] = target: T3, Glucose-dependent insulinotropic receptor (Homo sapiens, UniProt Q8TDV5); experiment: Agonist activity at human GPR119 transfected in HEK293 cells assessed as cAMP accumulation after 45 mins incubation by HTRF assay; assay type: functional, cell-based
T3 sequence (Q8TDV5 whole entry): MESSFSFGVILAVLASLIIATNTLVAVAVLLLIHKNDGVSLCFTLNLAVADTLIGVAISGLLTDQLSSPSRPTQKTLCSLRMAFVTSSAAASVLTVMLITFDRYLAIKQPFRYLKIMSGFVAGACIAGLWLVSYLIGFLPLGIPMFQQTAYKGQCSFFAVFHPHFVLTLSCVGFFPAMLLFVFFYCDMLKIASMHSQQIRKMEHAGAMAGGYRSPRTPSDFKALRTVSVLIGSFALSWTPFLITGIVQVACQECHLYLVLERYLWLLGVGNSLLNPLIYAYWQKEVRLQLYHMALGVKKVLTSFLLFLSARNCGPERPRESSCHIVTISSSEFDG

[16] = physchem; settings: octanol/phosphate buffer, pH 7.4
[17] = Apparent permeability across basolateral to apical side of human Caco2 cells; assay type: ADME, cell-based; settings: Caco-2
[18] = Apparent permeability across apical to basolateral side of human Caco2 cells; assay type: ADME, cell-based; settings: Caco-2
[19] = Fraction unbound in mouse plasma; assay type: ADME, cell-free
[20] = Fraction unbound in rat plasma; assay type: ADME, cell-free

Sequence of Voltage-gated inwardly rectifying potassium channel KCNH2 (Q12809 whole entry): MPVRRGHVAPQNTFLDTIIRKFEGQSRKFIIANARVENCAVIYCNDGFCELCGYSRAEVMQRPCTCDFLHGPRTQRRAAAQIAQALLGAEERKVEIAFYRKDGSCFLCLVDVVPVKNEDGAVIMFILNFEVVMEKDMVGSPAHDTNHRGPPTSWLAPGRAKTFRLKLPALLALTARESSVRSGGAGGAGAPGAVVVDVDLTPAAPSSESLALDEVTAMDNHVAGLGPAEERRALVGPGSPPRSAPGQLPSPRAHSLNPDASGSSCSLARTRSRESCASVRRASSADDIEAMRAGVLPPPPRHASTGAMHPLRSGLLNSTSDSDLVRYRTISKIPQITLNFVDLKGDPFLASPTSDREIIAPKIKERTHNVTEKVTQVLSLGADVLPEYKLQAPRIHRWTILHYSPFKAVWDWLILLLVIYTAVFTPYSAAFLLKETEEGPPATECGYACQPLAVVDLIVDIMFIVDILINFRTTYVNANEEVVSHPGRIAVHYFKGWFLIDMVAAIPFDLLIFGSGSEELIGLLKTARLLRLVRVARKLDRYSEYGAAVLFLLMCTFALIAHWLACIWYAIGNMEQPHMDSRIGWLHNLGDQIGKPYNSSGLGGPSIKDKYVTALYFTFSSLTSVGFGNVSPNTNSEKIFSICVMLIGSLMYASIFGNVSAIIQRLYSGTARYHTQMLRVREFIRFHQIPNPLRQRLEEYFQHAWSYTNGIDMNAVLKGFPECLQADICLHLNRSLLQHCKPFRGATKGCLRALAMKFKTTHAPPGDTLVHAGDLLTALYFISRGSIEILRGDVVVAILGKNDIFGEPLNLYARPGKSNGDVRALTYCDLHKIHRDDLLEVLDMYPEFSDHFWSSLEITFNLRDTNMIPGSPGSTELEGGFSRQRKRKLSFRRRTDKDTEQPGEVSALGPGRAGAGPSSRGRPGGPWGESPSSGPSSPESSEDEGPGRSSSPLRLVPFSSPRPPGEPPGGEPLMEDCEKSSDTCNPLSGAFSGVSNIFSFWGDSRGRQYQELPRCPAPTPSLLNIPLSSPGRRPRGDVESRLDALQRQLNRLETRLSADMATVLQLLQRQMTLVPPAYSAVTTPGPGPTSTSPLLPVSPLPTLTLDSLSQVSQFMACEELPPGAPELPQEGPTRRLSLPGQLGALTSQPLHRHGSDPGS
Sequence of Cytochrome P450 3A4 (P08684 whole entry): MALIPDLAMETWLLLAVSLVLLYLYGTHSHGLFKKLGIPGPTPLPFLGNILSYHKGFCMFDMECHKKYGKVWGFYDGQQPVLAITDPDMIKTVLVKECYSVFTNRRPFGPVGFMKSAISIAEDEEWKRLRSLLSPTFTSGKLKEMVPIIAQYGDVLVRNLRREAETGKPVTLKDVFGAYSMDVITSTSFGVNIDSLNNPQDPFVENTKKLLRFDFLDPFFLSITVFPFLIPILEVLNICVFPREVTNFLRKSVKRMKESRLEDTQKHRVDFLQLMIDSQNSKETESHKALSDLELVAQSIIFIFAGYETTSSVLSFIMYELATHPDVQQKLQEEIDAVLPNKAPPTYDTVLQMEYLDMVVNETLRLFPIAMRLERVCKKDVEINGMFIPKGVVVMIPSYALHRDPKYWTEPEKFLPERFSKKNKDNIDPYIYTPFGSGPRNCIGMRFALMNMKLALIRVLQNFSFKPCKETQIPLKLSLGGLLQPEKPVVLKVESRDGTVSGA
Sequence of Cytochrome P450 2C9 (P11712 whole entry): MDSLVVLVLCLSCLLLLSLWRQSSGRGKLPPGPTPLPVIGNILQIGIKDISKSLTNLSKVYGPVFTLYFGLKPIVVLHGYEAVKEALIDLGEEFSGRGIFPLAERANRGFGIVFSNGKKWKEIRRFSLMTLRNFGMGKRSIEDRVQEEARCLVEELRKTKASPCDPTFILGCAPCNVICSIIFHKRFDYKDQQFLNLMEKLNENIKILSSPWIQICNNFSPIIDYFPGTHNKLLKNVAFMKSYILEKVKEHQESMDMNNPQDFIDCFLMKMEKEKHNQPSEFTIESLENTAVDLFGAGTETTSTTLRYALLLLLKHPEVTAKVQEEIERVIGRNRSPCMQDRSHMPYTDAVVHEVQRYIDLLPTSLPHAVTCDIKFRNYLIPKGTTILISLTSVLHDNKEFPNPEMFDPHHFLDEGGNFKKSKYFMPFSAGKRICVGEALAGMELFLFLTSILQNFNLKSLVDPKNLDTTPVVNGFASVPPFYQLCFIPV
Sequence of Cytochrome P450 2D6 (P10635 whole entry): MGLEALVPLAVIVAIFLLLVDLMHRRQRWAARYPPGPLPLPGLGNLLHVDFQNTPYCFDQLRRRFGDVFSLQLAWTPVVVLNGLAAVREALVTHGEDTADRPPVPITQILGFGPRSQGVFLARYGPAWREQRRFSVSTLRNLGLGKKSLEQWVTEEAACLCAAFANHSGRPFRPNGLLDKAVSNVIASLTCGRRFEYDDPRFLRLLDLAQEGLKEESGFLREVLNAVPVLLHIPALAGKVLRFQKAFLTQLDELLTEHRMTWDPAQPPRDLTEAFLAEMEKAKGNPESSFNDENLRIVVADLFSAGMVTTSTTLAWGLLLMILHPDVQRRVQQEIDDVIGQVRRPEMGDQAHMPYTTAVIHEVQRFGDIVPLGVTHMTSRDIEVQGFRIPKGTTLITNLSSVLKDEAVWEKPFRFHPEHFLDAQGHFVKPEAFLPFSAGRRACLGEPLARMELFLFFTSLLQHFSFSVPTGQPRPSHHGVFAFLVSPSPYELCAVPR
Sequence of Cytochrome P450 2C19 (P33261 whole entry): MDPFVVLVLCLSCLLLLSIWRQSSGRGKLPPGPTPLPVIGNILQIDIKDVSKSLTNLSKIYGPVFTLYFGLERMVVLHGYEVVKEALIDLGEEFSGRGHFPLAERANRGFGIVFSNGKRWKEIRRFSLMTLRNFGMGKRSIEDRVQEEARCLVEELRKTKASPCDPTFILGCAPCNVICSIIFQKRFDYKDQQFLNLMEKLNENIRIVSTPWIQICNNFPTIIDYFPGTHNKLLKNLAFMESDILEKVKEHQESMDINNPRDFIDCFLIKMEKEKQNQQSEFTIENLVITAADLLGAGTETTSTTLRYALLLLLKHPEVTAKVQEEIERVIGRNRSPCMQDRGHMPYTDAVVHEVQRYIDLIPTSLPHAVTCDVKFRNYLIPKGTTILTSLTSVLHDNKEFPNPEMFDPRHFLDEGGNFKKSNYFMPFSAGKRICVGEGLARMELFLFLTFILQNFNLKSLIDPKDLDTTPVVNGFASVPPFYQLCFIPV

SMILES | solubility at 24 h [6] [µM] | microsomal CLint [7] [µL/min/mg] | EC50 [14] [nM] | EC50 [15] [nM] | logD [16] | other results
CC(C)(C)OC(=O)N1CCN(c2ncc(OCc3ccc(S(C)(=O)=O)cc3)cn2)CC1 | 0.03 (≈ 0.0135 µg/mL) | – | – | – | – | half-life at 10 µM [1]: < 0.144 h; half-life at 10 µM [2]: 2.64 h; half-life at 10 µM [3]: 2.88 h; half-life at 10 µM [4]: 1.44 h; half-life at 10 µM [5]: < 1.8 h
C[C@@H]1CN(c2nnc(C(F)(F)F)o2)CCN1c1ncc(OCc2ccncc2C#N)cn1 | – | – | – | – | – | half-life at 10 µM [1]: 13.4 h; half-life at 10 µM [2]: > 240 h; half-life at 10 µM [3]: > 240 h; half-life at 10 µM [4]: > 240 h; half-life at 10 µM [5]: 10.8 h
C[C@@H]1CN(c2noc(C3COCCO3)n2)CCN1c1ncc(OCc2ccncc2C#N)cn1 (some centres undefined) | 30 (≈ 13.9 µg/mL) | 26 | 631 | 100 | 2.3 | –
C[C@@H]1CN(c2noc(C(C)(C)O)n2)CCN1c1ncc(OCc2ccncc2C#N)cn1 | 8 (≈ 3.49 µg/mL) | 14 | 631 | 631 | 2.4 | –
C[C@@H]1CN(C(=O)OC2(C(F)(F)F)COC2)CCN1c1ncc(OCc2ccncc2C#N)cn1 | 110 (≈ 52.6 µg/mL) | 44 | 158 | 20 | 2.5 | Papp B→A [17]: 9 ×10⁻⁶ cm/s; half-life at 10 µM [1]: 0.96 h; half-life at 10 µM [2]: > 240 h; half-life at 10 µM [3]: > 240 h; half-life at 10 µM [4]: > 240 h; half-life at 10 µM [5]: 9.84 h; INH [8]: 12 µM; INH [9]: > 25 µM; INH [10]: > 25 µM; INH [11]: > 25 µM; INH [12]: > 25 µM; INH [13]: > 25 µM; Papp A→B [18]: 16 ×10⁻⁶ cm/s; fraction unbound [19]: 0.081; fraction unbound [20]: 0.047
C[C@@H]1CN(C(=O)OC2COC2)CCN1c1ncc(OCc2ccncc2C#N)cn1 | > 2200 | 5 | – | – | 1.6 | –

More lines, main results first:

solubility at 24 h [6] [µM] | microsomal CLint [7] [µL/min/mg] | EC50 [14] [nM] | EC50 [15] [nM] | logD [16] | SMILES | other results
– | 43 | – | – | – | C[C@@H]1CN(C(=O)OC(C)(C)C)CCN1c1ncc(OCc2ccncc2C#N)cn1 | –
6 (≈ 2.52 µg/mL) | 23 | – | – | – | CC(C)c1nc(N2CCN(c3ncc(OCc4ccncc4C#N)cn3)[C@H](C)C2)no1 | INH [8]: 10 µM; INH [9]: > 25 µM; INH [10]: > 25 µM; INH [11]: > 25 µM; INH [12]: > 25 µM; INH [13]: > 25 µM
59 (≈ 26.5 µg/mL) | 43 | 100 | 63.1 | 3 | C[C@@H]1CN(c2noc(C3(C)COC3)n2)CCN1c1ncc(OCc2ccncc2C#N)cn1 | –
34 (≈ 16.7 µg/mL) | 107 | – | – | 3.1 | C[C@@H]1CN(C(=O)OC2(C(F)(F)F)CCOC2)CCN1c1ncc(OCc2ccncc2C#N)cn1 (some centres undefined) | –
– | 308 | 501 | 200 | – | CC(C)C1(OC(=O)N2CCN(c3ncc(OCc4ccncc4C#N)cn3)[C@H](C)C2)COC1 | –
> 860 | 23 | 631 | 200 | – | C[C@@H]1CN(C(=O)OC2(C)COC2)CCN1c1ncc(OCc2ccncc2C#N)cn1 | –
110 (≈ 48.2 µg/mL) | 37 | > 7940 | 631 | 2.2 | C[C@@H]1CN(C(=O)OC2CCOCC2)CCN1c1ncc(OCc2ccncc2C#N)cn1 | –
180 (≈ 73.9 µg/mL) | – | – | – | – | N#Cc1cnccc1COc1cnc(N2CCN(C(=O)OC3CCOC3)CC2)nc1 (racemic) | –
